In patent US20230114728A1 (Venatorx Pharmaceuticals, Inc., priority 2019, published 2023):
In brackets after ≈: the same amount, converted by molar mass.

What was measured:
P. aeruginosa CDC-0110 = assay: Broth microdilution MIC in iron-depleted CAMHB (IDM); format: cell-based; settings: Pseudomonas aeruginosa, CDC0110, read-out: Minimum Inhibitory Concentration, P. aeruginosa CDC-0110
Protocol: (§1) To determine the ability of test compounds to inhibit the growth bacterial strains under conditions of iron-depletion, classic cell based broth microdilution minimum inhibitory concentration (MIC) assays were employed. MIC assays are performed according to CLSI methods except where otherwise noted (CLSI, 2018 and CLSI, 2019). The reference type strain E. coli ATCC 25922 was used to determine the ability of the PBP inhibitors to inhibit the growth of Enterobacteriaceae. Wild-type P. aeruginosa ATCC 27853, A. baumannii ATCC 17978 and A. baumannii ATCC 19606, along with the hyper-permeable P. aeruginosa ATCC 35151, an engineered efflux pump-compromised strain of P. aeruginosa (ΔmexAB-oprM), and an engineered efflux-pump compromised strain of A. baumannii IL123 (ABΔ3-ARAEcPore) were used to determine the ability of PBP inhibitors to penetrate the outer membrane of P. aeruginosa and A. baumannii and assess antibacterial activity against these important gram-negative organisms.
(§2) Briefly, cryo-preserved bacterial cultures of challenge strains are streaked for isolation on appropriate agar medium, in this case cation-adjusted Mueller Hinton agar. Following incubation to allow growth of the colonies, plates are sealed with parafilm and stored refrigerated for up to two weeks. For preparation of assay inoculum and to ensure low variability, at least 5 colonies are picked from the agar plates with an inoculating loop and aseptically transferred to a culture tube containing 3 mL of iron-depleted cation-adjusted Mueller Hinton broth (IDM)—see below for IDM preparation. The broth culture is grown for 3-5 hours at 37° C. with shaking at 200 rpm. Meanwhile, 2-fold serial dilutions of test compounds are conducted in a 96-well plate with a final volume of 75 μL per well at 2-fold the final desired concentration. After the dilution plates are set up the growing cultures are then diluted in a cuvette containing IDM and the optical density is measured at 600 nm. The inoculum is diluted such that 75 μL of this culture in IDM results in a starting bacterial concentration of 2-8×10^5 CFU/mL when added to the dilution plates. The plates are incubated for 16-20 hours for Enterobacteriaceae and Pseudomonas and 20-24 hours for Acinetobacter at 37° C. The MIC values are read visually as the lowest concentration well with no bacterial growth.
(§3) Method for Iron-Depleted Cation-Adjusted Mueller Hinton Broth (IDM) Preparation:
(§4) • Prepare cation-adjusted Mueller Hinton broth as per the manufacturer's recommendations and autoclave. • Add 100 g/L Chelex 100 resin, cover with foil and incubate with stirring for 2 hours • Remove Chelex 100 resin by filtration with 0.45 μm filter flask • Add the following back to the medium: • CaCl2 dihydrate: 82.5 mg/L • MgCl2 hexahydrate: 94.1 mg/L • ZnSO4: 10 μM • Adjust pH of medium to 7.3 with 5 N HCl • Sterilize using a 0.22 µm filter flask

[1] = system: A. baumannii CDC-0045 producing TEM-1D, OXA-23, and OXA-69; assay: as above; format: cell-based; settings: Acinetobacter baumannii, read-out: Minimum Inhibitory Concentration, CDC-0045
[2] = Bocillin-FL fluorescence polarization competition binding assay, A. baumannii PBP3; settings: fluorescence polarization competition binding assay using Bocillin-FL; column 3; read-out: 4. baumannii PBP1a Potency
Description: Example I: Experimental Method for Penicillin-Binding Protein Binding Assays with Bocillin-FL Via Fluorescence Polarization
To determine the ability of boronic acid-based test PBP inhibitors to bind Penicillin Binding Proteins (PBPs), Bocillin-FL (fluorescently-labeled penicillin V; ThermoFisher Scientific) was used in a fluorescence polarization (FP) competition binding assay to assess inhibitor binding to PBP2, PBP3 or PBP4 from Escherichia coli (K12), PBP3 from Pseudomonas aeruginosa (PA01), PBP1a, PBP2 and PBP3 from Acinetobacter baumannii (ATCC 19606), and PBP2 from Neiserria gonorrheae (FA19). PBPs were cloned and purified as described previously (E. coli PBPs, King, D. T, et al., ACS Infectious Diseases 2015, 1, 175-184; P. aeruginosa PBP3, Han et. al., PNAS 2010, 107 (51), 22002-22007; A. baumannii PBPs, Penwell et. al., Antimicrob. Agents Chemother. 2015, 59 (3), 1680-1689; N. gonorrhoeae PBP2, Singh et. al., J Biol. Chem. 2019, 294 (38), 14020-14032). To establish assay conditions for competition binding, enzyme titration/saturation binding experiments were initially performed. Bocillin-FL was prepared at 0.2 μM in a buffer comprised of 50 mM Hepes (pH 8.0), 300 mM NaCl and 5% (v/v) glycerol for reactions with E. coli, P. aeruginosa and N. gonorrhoeae PBPs, and 25 mM Tris (pH 8.0), 200 mM NaCl and 10% (v/v) glycerol and 0.005% (v/v) Tween 20 for reactions with A. baumannii PBPs. Saturation binding was performed by mixing 40 μl of PBP solutions ranging in concentrations from 0-24 μM with 40 μl of the 0.2 μM Bocillin-FL solution, in individual wells of a black 384-well microplate. FP was measured immediately upon mixing (Excitation, 490 nm; Emission, 520 nm; g-factor, 0.96), using a Cytation3 (BioTek) microplate reader and measured continuously for up to 120 minutes. […] The competition binding assay (80 μl final volume) was validated using beta-lactams and PBPs at final concentrations of: 1.5 μM, E. coli PBP3; 0.75 μM, P. aeruginosa PBP3; 1 μM A. baumannii PBP1a; 2.5 μM A. baumannii PBP2; 0.2 μM A. baumannii PBP3; and […] N. gonorrhoeae PBP2. Bocillin-FL was at 0.1 μM (0.05 μM with A. baumannii PBP1a) and beta-lactam concentrations ranged from 0-1000 μM. […] Bocillin-FL was added and the FP immediately measured for up to 60 minutes (90 minutes for E. coli PBP2). […] The beta-lactam potency was reported as the concentration of beta-lactam required to reduce the amount of PBP bound-Bocillin-FL by 50% (EC50). […] Binding assays for boronic acid PBP inhibitors were performed in an identical fashion for the respective PBPs

[3] = system: P. aeruginosa CDC-0054 producing VIM-4, OXA-50, and PAO; assay: Broth microdilution MIC in iron-depleted CAMHB (IDM); format: cell-based; settings: Pseudomonas aeruginosa, read-out: Minimum Inhibitory Concentration, P. aeruginosa CDC-0054
Protocol: (§5) Example IV: In Vitro Antibacterial Assays in Iron-Depleted Cation-Adjusted Mueller-Hinton Broth
as §1, §2, §3, §4

[4] = system: A. baumannii CDC-0036 OXA-65, and OXA-24; assay: as above; format: cell-based; settings: Acinetobacter baumannii, read-out: Minimum Inhibitory Concentration, CDC-0036
Protocol: as §5, §1, §2, §3, §4

[5] = system: A. baumannii CDC-0033 producing NDM-1, and OXA-94; assay: as above; format: cell-based; settings: Acinetobacter baumannii, read-out: Minimum Inhibitory Concentration, CDC-0033
Protocol: as §5, §1, §2, §3, §4

A. baumannii ATCC 17978 = assay: as above; format: cell-based; settings: Acinetobacter baumannii, ATCC17978, read-out: Minimum Inhibitory Concentration, ATCC 17978
Protocol: as §5, §1, §2, §3, §4

[6] = system: P. aeruginosa CDC-0095 producing OXA-50, and PAO; assay: as above; format: cell-based; settings: Pseudomonas aeruginosa, read-out: Minimum Inhibitory Concentration, P. aeruginosa CDC-0095
Protocol: as §5, §1, §2, §3, §4

[7] = system: A. baumannii CDC-0083 producing NDM-1, PER-7, OXA-23, and OXA-69; assay: as above; format: cell-based; settings: Acinetobacter baumannii, read-out: Minimum Inhibitory Concentration, CDC-0083
Protocol: as §5, §1, §2, §3, §4

P. aeruginosa ATCC 35151 = assay: as above; format: cell-based; settings: Pseudomonas aeruginosa, ATCC35151; iron-depleted MHB (IDM); hyper-permeable strain; read-out: Minimum Inhibitory Concentration, P. aeruginosa ATCC 35151
Protocol: as §5, §1, §2, §3, §4

[8] = system: P. aeruginosa (ΔmexAB-oprM); assay: as above; format: cell-based; settings: Pseudomonas aeruginosa, read-out: Minimum Inhibitory Concentration, P. aeruginosa ΔmexAB-OprM
Protocol: as §5, §1, §2, §3, §4

P. aeruginosa ATCC 27853 = assay: as above; format: cell-based; settings: Pseudomonas aeruginosa, ATCC27853, read-out: Minimum Inhibitory Concentration, P. aeruginosa ATCC 27853
Protocol: as §5, §1, §2, §3, §4

A. baumannii ATCC 19606 = assay: as above; format: cell-based; settings: Acinetobacter baumannii, ATCC19606, read-out: Minimum Inhibitory Concentration, ATCC 19606
Protocol: as §5, §1, §2, §3, §4

SMILES | MIC (P. aeruginosa CDC-0110) [µg/mL] | MIC [1] [µg/mL] | EC50 [2] [µM] | MIC [3] [µg/mL] | MIC [4] [µg/mL] | MIC [5] [µg/mL] | MIC (A. baumannii ATCC 17978) [µg/mL] | MIC [6] [µg/mL] | MIC [7] [µg/mL] | MIC (P. aeruginosa ATCC 35151) [µg/mL] | MIC [8] [µg/mL] | MIC (P. aeruginosa ATCC 27853) [µg/mL] | MIC (A. baumannii ATCC 19606) [µg/mL]
NCCCN1CCN(C(=O)N[C@@H](C(=O)N[C@H]2Cc3ccc(F)c(C(=O)O)c3OB2O)c2c(F)c(F)c(O)c(O)c2Cl)C(=O)C1=O [Example 227, (R)-3-((R)-2-(4-(3-aminopropyl)-2,3-dioxopiperazine-1-carboxamido)-2-(2-chloro-5,6-difluoro-3,4-dihydroxyphenyl)acetamido)-7-fluoro-2-hydroxy-3,4-dihydro-2H-benzo[e][1,2]oxaborinine-8-carboxylic acid] | 0.25 (≈ 0.38 µM) | 2 to 4 (≈ 3.04 to 6.08 µM) | > 100 | 0.5 to 1 (≈ 0.76 to 1.52 µM) | 2 to 4 (≈ 3.04 to 6.08 µM) | 8 to 16 (≈ 12.2 to 24.3 µM) | 0.25 (≈ 0.38 µM) | 2 to 4 (≈ 3.04 to 6.08 µM) | 2 to 4 (≈ 3.04 to 6.08 µM) | 0.25 (≈ 0.38 µM) | 0.25 (≈ 0.38 µM) | 0.5 to 1 (≈ 0.76 to 1.52 µM) | 0.25 (≈ 0.38 µM)
CS(=O)(=O)N1CCN(C(=O)N[C@@H](C(=O)N[C@H]2Cc3ccc(F)c(C(=O)O)c3OB2O)c2c(F)c(F)c(O)c(O)c2Cl)C1=O [Example 229, (R)-3-((R)-2-(2-chloro-5,6-difluoro-3,4-dihydroxyphenyl)-2-(3-(methylsulfonyl)-2-oxoimidazolidine-1-carboxamido)acetamido)-7-fluoro-2-hydroxy-3,4-dihydro-2H-benzo[e][1,2]oxaborinine-8-carboxylic acid] | 0.5 to 1 (≈ 0.768 to 1.54 µM) | 8 to 16 (≈ 12.3 to 24.6 µM) | 10 to 30 | 2 to 4 (≈ 3.07 to 6.15 µM) | 2 to 4 (≈ 3.07 to 6.15 µM) | 2 to 4 (≈ 3.07 to 6.15 µM) | 0.25 (≈ 0.384 µM) | – | 2 to 4 (≈ 3.07 to 6.15 µM) | 0.25 (≈ 0.384 µM) | 0.25 (≈ 0.384 µM) | 0.5 to 1 (≈ 0.768 to 1.54 µM) | 0.5 to 1 (≈ 0.768 to 1.54 µM)
